# Experimental data taken from patent publication US20040029823A1, “Antisense oligonucleotide compositions and methods for the modulation of JNK proteins” (priority 1997, published 2004).
# Strand notation (5' to 3'): a small letter for the sugar, then the base; units joined by * are phosphorothioate-linked, units joined directly phosphodiester-linked; [ ] holds rarer units or linkages, { } end groups; capitals alone tell only the bases. e = 2'-O-(2-methoxyethyl) (MOE); [5mC] = 5-methylcytosine; d = 2'-deoxy (DNA)
# Columns and labels:
# [1] = tested on: rat JNK2 mRNA; assay: Northern assay of rat JNK2 (p54a) mRNA in A10 aortic smooth muscle cells; assay type: cell-based; design: inhibition of rat JNK2 mRNA levels / % INHIBITION: concentration or dose not given beside the values; conditions: rat JNK2 (p54a) mRNA in A10 cells; for % EXPRESSION: relative to LIPOFECTIN-only control
# Protocol: In order to study the role of JNK proteins in animal models, oligonucleotides targeted to the genes encoding JNK1, JNK2 and JNK3 of Rattus norvegicus were prepared. These oligonucleotides are 2′-methoxyethoxy, phosphodiester/2′-hydroxyl, phosphorothioate/2′-methoxyethoxy, phosphodiester “gapmers” in which every cytosine residue is 5-methylcytosine (m5c). These antisense compounds were synthesized according to the methods of the disclosure. Certain of these oligonucleotides are additionally specifically hybridizable to JNK genes from other species as indicated herein. The oligonucleotides described in this Example were tested for their ability to modulate rat JNK mRNA levels essentially according to the methods described in the preceding Examples, with the exceptions that the cell line used was rat A10 aortic smooth muscle cells (ATCC No. ATCC CRL-1476) and the probes used were specific for rat JNK1, JNK2 or JNK3 (see infra). A10 cells were grown and treated with oligonucleotides essentially as described by (Cioffi et al. Mol. Pharmacol., 1997, 51, 383).
# These antisense compounds were tested for their ability to modulate levels of p54? (JNK1) and p54a (JNK2) mRNA in A10 cells via Northern assays. Due to the high degree of sequence identity between the human and rat genes, radiolabeled human JNK1 (Example 3) and JNK2 (Example 4) cDNAs functioned as specific probes for the rat homologs.
# These antisense compounds were tested for their ability to modulate levels of p54a (JNK2) mRNA in A10 cells using the radiolabeled human JNK2 cDNA as a probe as described supra. Oligonucleotides showing levels of inhibition from ≧ about 60% to about 100% of rat JNK2 mRNA levels include ISIS Nos. 18254, 18255, 18257, 18258, 18259, 18260 and 18265 (SEQ ID NOS: 125, 126, 128, 129, 130, 131 and 136, respectively). These oligonucleotides are preferred embodiments of the invention for modulating rat JNK2 expression. […] These oligonucleotides are thus more preferred embodiments of the invention for modulating rat JNK2 expression. ISIS 18259 (SEQ ID NO: 130) was chosen for use in further studies (infra).
# [2] = tested on: JNK2 mRNA; assay: Northern assay of JNK2 mRNA expression in A549 cells; assay type: cell-based, human; conditions: for % EXPRESSION: relative to LIPOFECTIN-only control
# Protocol: In order to evaluate the activity of potential JNK-modulating oligonucleotides, human lung carcinoma cell line A549 (American Type Culture Collection, Rockville, Md. No. ATCC CCL-185) cells or other cell lines as indicated in the Examples, were grown and treated with oligonucleotides or control solutions as detailed below. After harvesting, cellular extracts were prepared and examined for specific JNK mRNA levels or JNK protein levels (i.e., Northern or Western assays, respectively). In all cases, “% expression” refers to the amount of JNK-specific signal in an oligonucleotide-treated cell relative to an untreated cell (or a cell treated with a control solution that lacks oligonucleotide), and “% inhibition” is calculated as
# 100%−% Expression =% Inhibition.
# Northern Assays: The mRNA expression of each JNK protein was determined by using a nucleic acid probe specifically hybridizable thereto. Nucleic acid probes specific for JNK1, JNK2 and JNK3 are described in Examples 3, 4 and 5, respectively. The probes were radiolabelled by means well known in the art (see, e.g., Short Protocols in Molecular Biology, 2nd Ed., Ausubel et al., Eds., John Wiley & Sons, New York, 1992, pages 3-11 to 2-3-44 and 4-17 to 4-18; Ruth, Chapter 6 In: Methods in Molecular Biology, Vol. 26: Protocols for Oligonucleotide Conjugates, Agrawal, ed., Humana Press Inc., Totowa, N.J., 1994, pages 167-185; and Chapter 10 In: Molecular Cloning: A Laboratory Manual, 2nd Ed., Sambrook et al., Eds., pages 10.1-10.70). The blots were stripped and reprobed with a ^32P-labeled glyceraldehyde 3-phosphate dehydrogenase (G3PDH) probe (Clontech Laboratories, Inc., Palo Alto, Calif.) in order to confirm equal loading of RNA and to allow the levels of JNK transcripts to be normalized with regard to the G3PDH signals.
# A549 cells were grown in T-75 flasks until 80-90% confluent. At this time, the cells were washed twice with 10 mL of media (DMEM), followed by the addition of 5 mL of DMEM containing 20 μg/mL of LIPOFECTIN™ (i.e., 1:1 (w/w) DOTMA/DOPE, Life Technologies, Gaithersburg, Md.; DOTMA=N-[1-(2,3-dioleyoxy)propyl]-N,N,N-trimethylammonium chloride; DOPE=dioleoyl phosphatidylethanolamine). The oligonucleotides were added from a 10 μM stock solution to a final concentration of 400 nM, and the two solutions were mixed by swirling the flasks. As a control, cells were treated with LIPOFECTIN™ without oligonucleotide under the same conditions and for the same times as the oligonucleotide-treated samples. After 4 hours at 37° C., the medium was replaced with fresh DMEM containing 10% serum. The cells were allowed to recover for 18 hours. Total cellular RNA was then extracted in guanidinium, subject to gel electrophoresis and transferred to a filter according to techniques known in the art (see, e.g., Chapter 7 In: Molecular Cloning: A Laboratory Manual, 2nd Ed., Sambrook et al., Eds., pages 7.1-7.87, and Short Protocols in Molecular Biology, 2nd Ed., Ausubel et al., Eds., John Wiley & Sons, New York, 1992, pages 2-24 to 2-30 and 4-14 to 4-29). Filters were typically hybridized overnight to a probe specific for the particular JNK gene of interest in hybridization buffer (25 mM KPO4, pH 7.4; 5×SSC; 5× Denhardt's solution, 100 μg/ml Salmon sperm DNA and 50% formamide) (Alahari et al., Nucl. Acids Res., 1993, 21, 4079). This was followed by two washes with 1×SSC, 0.1% SDS and two washes with 0.25×SSC, 0.1% SDS. Hybridizing bands were visualized by exposure to X-OMAT AR film and quantitated using a PHOSPHORIMAGER™ essentially according to the manufacturer's instructions (Molecular Dynamics, Sunnyvale, Calif.)
# B. JNK2-specific probes: In initial screenings of a set of oligonucleotides derived from the JNK2 sequence (Table 9) for biological activity, a cDNA clone of JNK2 (Kallunki et al., Genes & Development, 1994, 8, 2996) was radiolabeled and used as a JNK2-specific probe in Northern blots. […]
# [3] = JNK2 mRNA dose response, 100 nM
# [4] = JNK2 mRNA dose response, 200 nM
# [5] = JNK2 mRNA dose response, 400 nM
# [6] = JNK2 mRNA time course, t=0 h after 4 hour treatment
# [7] = JNK2 mRNA, A549 cells, 400 nM oligonucleotide
# [8] = JNK2 mRNA, chemically modified oligonucleotides, dose 100 nM
# [9] = JNK2 mRNA, chemically modified oligonucleotides, dose 400 nM
# [10] = JNK2 mRNA, A549 cells, 400 nM oligonucleotide, 100% - % expression
substance,measurement,setting,value
10260 (antisense eAeTe[5mC]eTeG*d[5mC]*dG*dA*dG*dG*dT*dT*dT*d[5mC]*dA*eTe[5mC]eGeGe[5mC]) [compound 10260],% INHIBITION,[1],59%
same,% EXPRESSION,[1],41%
"12560 (antisense GTCCGGGCCAGGCCAAAGTC; DNA, all phosphorothioate, methylation of C not given here) [compound 12560]",Normalized % Control,"[2]; JNK2 mRNA dose response, 50 nM",68.1%
same,Normalized % Control,[2]; [3],50.0%
same,Normalized % Control,[2]; [4],25.1%
same,Normalized % Control,[2]; [5],14.2%
same,% INHIBITION,[2]; [6],79.8%
same,Normalized % Control,[2]; [6],20.2%
same,% INHIBITION,"[2]; JNK2 mRNA time course, t=4 h",88.9%
same,Normalized % Control,"[2]; JNK2 mRNA time course, t=4 h",11.1%
same,% INHIBITION,"[2]; JNK2 mRNA time course, t=12 h",78.2%
same,Normalized % Control,"[2]; JNK2 mRNA time course, t=12 h",21.8%
same,% INHIBITION,"[2]; JNK2 mRNA time course, t=48 h",57.3%
same,Normalized % Control,"[2]; JNK2 mRNA time course, t=48 h",42.7%
same,% INHIBITION,"[2]; JNK2 mRNA time course, t=72 h",(0.0) %
same,Normalized % Control,"[2]; JNK2 mRNA time course, t=72 h",116.8%
same,% EXPRESSION,[2]; [7],11%
same,Normalized % Control,[2]; [8],62.1%
same,Normalized % Control,[2]; [9],31.4%
12561 (antisense dC*dA*dG*dG*dA*dT*dG*dA*dC*dT*dT*dC*dG*dG*dG*dC*dG*dC*dC*dC) [compound 12561],% EXPRESSION,[2]; [7],60%
same,% INHIBITION,[2]; [10],40%
12562 (antisense dG*dC*dT*dC*dT*dC*dC*dC*dA*dT*dG*dA*dT*dG*dC*dA*dA*dC*dC*dC) [compound 12562],% EXPRESSION,[2]; [7],89%
same,% INHIBITION,[2]; [10],11%
12563 (antisense dA*dT*dG*dG*dG*dT*dG*dA*dC*dG*dC*dA*dG*dA*dG*dC*dT*dT*dC*dG) [compound 12563],% EXPRESSION,[2]; [7],22%
12564 (antisense dC*dT*dG*dC*dT*dG*dC*dA*dT*dC*dT*dG*dA*dA*dG*dG*dC*dT*dG*dA) [compound 12564],% EXPRESSION,[2]; [7],28%
12565 (antisense dT*dG*dA*dG*dA*dA*dG*dG*dA*dG*dT*dG*dG*dC*dG*dT*dT*dG*dC*dT) [compound 12565],% EXPRESSION,[2]; [7],19%
12566 (antisense dT*dG*dC*dT*dG*dT*dC*dT*dG*dT*dG*dT*dC*dT*dG*dA*dG*dG*dC*dC) [compound 12566],% EXPRESSION,[2]; [7],42%
12568 (antisense dC*dA*dT*dT*dT*dC*dA*dG*dG*dC*dC*dC*dA*dC*dG*dG*dA*dG*dG*dT) [compound 12568],% EXPRESSION,[2]; [7],20%
12569 (antisense dG*dG*dT*dC*dT*dG*dA*dA*dT*dA*dG*dG*dG*dC*dA*dA*dG*dG*dC*dA) [compound 12569],% EXPRESSION,[2]; [7],13%
12570 (antisense dG*dG*dG*dC*dA*dA*dG*dT*dC*dC*dA*dA*dG*dC*dA*dA*dG*dC*dA*dT) [compound 12570],% EXPRESSION,[2]; [7],24%
"14318 (sense GACTTTGGCCTGGCCCGGAC; DNA, all phosphorothioate, methylation of C not given here) [compound 14318]",Normalized % Control,"[2]; JNK2 mRNA dose response, 50 nM",87.1%
same,Normalized % Control,[2]; [3],89.8%
same,Normalized % Control,[2]; [4],92.1%
same,Normalized % Control,[2]; [5],99.6%
"14319 (GTGCGCGCGAGCCCGAAATC; DNA, all phosphorothioate, methylation of C not given here) [compound 14319]",Normalized % Control,"[2]; JNK2 mRNA dose response, 50 nM",90.4%
same,Normalized % Control,[2]; [3],93.7%
same,Normalized % Control,[2]; [4],110.2%
same,Normalized % Control,[2]; [5],100.0%
15352 (antisense eG*eT*e[5mC]*e[5mC]*eG*eG*eG*e[5mC]*e[5mC]*eA*eG*eG*e[5mC]*e[5mC]*eA*eA*eA*eG*eT*e[5mC]) [compound 15352],Normalized % Control,[2]; [8],132.4%
same,Normalized % Control,[2]; [9],158.4%
15354 (antisense eGeTe[5mC]e[5mC]eG*dG*dG*dC*dC*dA*dG*dG*dC*dC*eAeAeAeGeTe[5mC]) [compound 15354],Normalized % Control,[2]; [8],38.3%
same,Normalized % Control,[2]; [9],17.1%
same,inhibition of JNK2 mRNA expression,"[2]; chemically modified derivatives of ISIS 12560, 400 nM (text to Table 12)",approximately 80%
15355 (antisense eG*eT*e[5mC]*e[5mC]*eG*eG*eG*e[5mC]*e[5mC]*eA*eG*dG*dC*dC*dA*dA*dA*dG*dT*dC) [compound 15355],Normalized % Control,[2]; [8],61.3%
same,Normalized % Control,[2]; [9],29.1%
15356 (antisense dG*dT*dC*dC*dG*dG*dG*dC*dC*eA*eG*eG*e[5mC]*e[5mC]*eA*eA*eA*eG*eT*e[5mC]) [compound 15356],Normalized % Control,[2]; [8],38.6%
same,Normalized % Control,[2]; [9],11.0%
"15357 (antisense GTCCGGGCCAGGCCAAAGTC; wingmer: 5' deoxy phosphorothioate wing, 3' MOE phosphodiester wing, wing lengths not given here) [compound 15357]",Normalized % Control,[2]; [8],42.8%
same,Normalized % Control,[2]; [9],13.7%
15358 (antisense eGeTe[5mC]e[5mC]eGeGeGe[5mC]e[5mC]eAeG*dG*dC*dC*dA*dA*dA*dG*dT*e[5mC]) [compound 15358],Normalized % Control,[2]; [8],47.4%
same,Normalized % Control,[2]; [9],29.4%
18254 (antisense eTe[5mC]eAeTeG*dA*dT*dG*dT*dA*dG*dT*dG*dT*d[5mC]*eAeTeAe[5mC]eA) [compound 18254],% INHIBITION,[1],80%
same,% EXPRESSION,[1],20%
GTC-CGG-GCC-AGG-CCA-AAG-TC (GTCCGGGCCAGGCCAAAGTC; chemistry not given here) [ISIS 12560],% INHIBITION,"[2]; JNK2 mRNA time course, t=12 h",greater than or equal to 80%
same,% INHIBITION,"[2]; JNK2 mRNA time course, t=48 h",greater than or equal to 60%
